Data: patent US20060069132A1, “Azolecarboxamide herbicides” (priority 2004, published 2006)

What was measured:
[1] = test system: wild oat; assay: Test B postemergence herbicide test; type: in vivo, Avena fatua; settings: scale 0 (no effect) to 100 (complete control); for Oat, Wild plant response rating: postemergence, visual rating
Procedure, shortened: (§1)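 Scale 0–100: zero equals no visible effect, 100 complete control, judged by eye relative to controls. Timing: 13 to 15 days in greenhouse post-treatment. Growth stage at spraying: two leaves (paddy) or one to four leaves, 2–18 cm (postemergence).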

[2] = test system: corn; assay: Test B pre-/postemergence herbicide test; type: in vivo, Zea mays; settings: for Corn plant response rating: postemergence, visual rating
Procedure, shortened: (§2)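 Herbicidal effect was judged by eye on a 0–100 scale after plants stood 13 to 15 days in the greenhouse following pre- or postemergence treatment with surfactant-containing formulations.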

[3] = test system: barnyardgrass; assay: Test A pre-/postemergence herbicide test; type: in vivo, Echinochloa crus-galli
Procedure, shortened: (§3)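 Greenhouse injury scoring (0–100, complete control = 100) at approximately ten days follows simultaneous pre- and postemergence application. Soil received a directed spray after seeding; seedlings of 2–10 cm at the one- to two-leaf stage were sprayed to runoff.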

[4] = test system: large crabgrass; assay: Test B pre-/postemergence herbicide test; type: in vivo, Digitaria sanguinalis; settings: for Crabgrass, Large plant response rating: postemergence, visual rating
Procedure, shortened: as §2

[5] = test system: barnyardgrass; assay: Test B flooded paddy test; type: in vivo, Echinochloa crus-galli; settings: 1000 g ai/ha, visual rating, scale 0 to 100 (0 no effect, 100 complete control), 13 to 15 days
Procedure, shortened: as §1

[6] = test system: large crabgrass; assay: Test A pre-/postemergence herbicide test; type: in vivo, Digitaria sanguinalis
Procedure, shortened: as §3

[7] = test system: lambsquarters; assay: Test B pre-/postemergence herbicide test; type: in vivo, Chenopodium album; settings: for Lambsquarters plant response rating: postemergence, visual rating
Procedure, shortened: as §2

[8] = test system: ducksalad; assay: Test B flooded paddy test; type: in vivo, Heteranthera limosa; settings: 1000 g ai/ha, visual rating, scale 0 to 100 (0 no effect, 100 complete control), 13 to 15 days
Procedure, shortened: as §1

[9] = test system: giant foxtail; assay: Test A pre-/postemergence herbicide test; type: in vivo, Setaria faberi
Procedure, shortened: as §3

[10] = test system: morningglory; assay: Test B pre-/postemergence herbicide test; type: in vivo, Ipomoea coccinea; settings: for Morningglory plant response rating: postemergence, visual rating
Procedure, shortened: (§4)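 Formulation: non-phytotoxic solvent mix with surfactant. Timing: preemergence on seed and postemergence on 2–18 cm plants, applied concurrently. Readout after 13–15 d greenhouse: visual 0–100 control rating against controls.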

[11] = test system: small flower umbrella sedge; assay: Test B flooded paddy test; type: in vivo, Cyperus difformis; settings: 1000 g ai/ha, visual rating, scale 0 to 100 (0 no effect, 100 complete control), 13 to 15 days
Procedure, shortened: as §1

[12] = test system: wheat; assay: Test B postemergence herbicide test; type: in vivo, Triticum aestivum; set-up: key to Wheat plant response rating: 0 = no effect, 100 = complete control; settings: scale 0 (no effect) to 100 (complete control); for Wheat plant response rating: postemergence, visual rating
Procedure, shortened: as §1

[13] = test system: rice; assay: Test B pre-/postemergence herbicide test; type: in vivo, Oryza sativa; settings: preemergence
Procedure, shortened: as §2

[14] = test system: Surinam grass; assay: Test B pre-/postemergence herbicide test; type: in vivo, Urochloa decumbens; settings: for Surinam Grass plant response rating: postemergence, visual rating
Procedure, shortened: as §2

[15] = test system: redroot pigweed; assay: Test A pre-/postemergence herbicide test; type: in vivo, Amaranthus retroflexus
Procedure, shortened: as §3

[16] = test system: velvetleaf; assay: Test A pre-/postemergence herbicide test; type: in vivo, Abutilon theophrasti
Procedure, shortened: as §3

[17] = test system: rice; assay: Test B flooded paddy test; type: in vivo, Oryza sativa; settings: 1000 g ai/ha, visual rating, scale 0 to 100 (0 no effect, 100 complete control), 13 to 15 days
Procedure, shortened: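 Treated at 2-leaf (paddy) or 1–4-leaf, 2–18 cm (postemergence); greenhouse 13–15 d; visual score vs control, 0 none to 100 complete control; dash = not tested.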

[18] = test system: giant foxtail; assay: Test B pre-/postemergence herbicide test; type: in vivo, Setaria faberi; settings: for Foxtail, Giant plant response rating: postemergence, visual rating
Procedure, shortened: as §2

[19] = test system: blackgrass; assay: Test B postemergence herbicide test; type: in vivo, Alopecurus myosuroides; settings: scale 0 (no effect) to 100 (complete control); for Blackgrass plant response rating: postemergence, visual rating
Procedure, shortened: as §1

[20] = test system: pigweed; assay: Test B pre-/postemergence herbicide test; type: in vivo, Amaranthus retroflexus; settings: for Pigweed plant response rating: postemergence, visual rating
Procedure, shortened: as §2

[21] = test system: morningglory; assay: Test A pre-/postemergence herbicide test; type: in vivo, Ipomoea spp.
Procedure, shortened: as §3

[22] = test system: velvetleaf; assay: Test B pre-/postemergence herbicide test; type: in vivo, Abutilon theophrasti; settings: for Velvetleaf plant response rating: postemergence, visual rating
Procedure, shortened: as §2

[23] = test system: cocklebur; assay: Test B pre-/postemergence herbicide test; type: in vivo, Xanthium strumarium; settings: for Cocklebur plant response rating: postemergence, visual rating
Procedure, shortened: as §4

[24] = test system: barnyardgrass; assay: Test B pre-/postemergence herbicide test; type: in vivo, Echinochloa crus-galli; settings: for Barnyardgrass plant response rating: postemergence, visual rating
Procedure, shortened: as §4

[25] = Postemergence, 500 g ai/ha, visual rating after 13 to 15 days
[26] = 500 g ai/ha, visual rating 0-100, 0 no effect, 100 complete control, preemergence
[27] = Postemergence, 500 g ai/ha, visual rating after 13 to 15 days, scale 0 (no effect) to 100 (complete control)
[28] = 125 g ai/ha, scale 0 (no effect) to 100 (complete control)
[29] = preemergence, 125 g ai/ha, 0 to 100 scale, 0 is no effect, 100 is complete control
[30] = Postemergence, 500 g ai/ha, 0 to 100 scale, 0 no effect, 100 complete control
[31] = Postemergence, 2000 g ai/ha, 0 to 100 scale, 0 no effect, 100 complete control
[32] = Preemergence, 500 g ai/ha, visual rating, 0 to 100 scale (0 no effect, 100 complete control)
[33] = Preemergence, 2000 g ai/ha, 0 to 100 scale, 0 no effect, 100 complete control
[34] = 125 g ai/ha, 0 to 100 scale, 0 is no effect, 100 is complete control
[35] = Preemergence, 2000 g ai/ha, visual rating, 0 to 100 scale (0 no effect, 100 complete control)
[36] = 500 g ai/ha, scale 0 (no effect) to 100 (complete control)
[37] = preemergence, 500 g ai/ha, visual injury, 0 to 100 scale (0 no effect, 100 complete control)

CCn1nc(C(C)(C)C)cc1C(=O)Nc1cccc(C(=O)OCCF)c1C [Compound 91]
Plant response rating, Oat, Wild [1, 25]: 10
Oat, Wild plant response rating ([1]; 125 g ai/ha): 0
Plant response rating, Corn [2, 26]: 10
Plant response rating, Corn [2, 27]: 10
Corn plant response rating [2, 28]: 10
Plant response rating, Corn [2, 29]: 0
Barnyardgrass plant response rating [3, 30]: 0
Plant response rating, Barnyardgrass [3, 31]: 0
Barnyardgrass plant response rating [3, 32]: 0
Barnyardgrass plant response rating [3, 33]: 15
Plant response rating, Crabgrass, Large [4, 27]: 10
Crabgrass, Large plant response rating [4, 28]: 0
Barnyardgrass plant response rating [5]: 0
Crabgrass, Large plant response rating [6, 30]: 10
Plant response rating, Crabgrass, Large [6, 31]: 20
Crabgrass, Large plant response rating [6, 32]: 0
Crabgrass, Large plant response rating [6, 33]: 35
Plant response rating, Lambsquarters [7, 26]: 30
Plant response rating, Lambsquarters [7, 27]: 30
Lambsquarters plant response rating [7, 28]: 20
Plant response rating, Lambsquarters [7, 29]: 0
Ducksalad plant response rating [8]: 30
Foxtail, Giant plant response rating [9, 30]: 0
Plant response rating, Foxtail, Giant [9, 31]: 0
Foxtail, Giant plant response rating [9, 32]: 0
Foxtail, Giant plant response rating [9, 33]: 30
Plant response rating, Morningglory [10, 26]: 10
Plant response rating, Morningglory [10, 27]: 0
Morningglory plant response rating [10, 28]: 0
Plant response rating, Morningglory [10, 29]: 0
Sedge, Umbrella plant response rating [11]: 60
Plant response rating, Wheat [12, 25]: 10
Wheat plant response rating ([12]; 125 g ai/ha): 0
Plant response rating, Rice ([13]; 500 g ai/ha, visual rating 0-100, 0 no effect, 100 complete control): 10
Plant response rating, Rice [13, 34]: 0
Plant response rating, Surinam Grass [14, 27]: 10
Surinam Grass plant response rating [14, 28]: 10
Pigweed plant response rating [15, 30]: 0
Plant response rating, Pigweed [15, 31]: 20
Pigweed plant response rating [15, 32]: 0
Pigweed plant response rating [15, 33]: 55
Velvetleaf plant response rating [16, 30]: 5
Plant response rating, Velvetleaf [16, 31]: 10
Velvetleaf plant response rating [16, 32]: 5
Velvetleaf plant response rating [16, 35]: 20
Rice plant response rating [17]: 10
Plant response rating, Foxtail, Giant [18, 26]: 10
Plant response rating, Foxtail, Giant [18, 27]: 0
Foxtail, Giant plant response rating [18, 28]: 0
Plant response rating, Foxtail, Giant [18, 29]: 10
Plant response rating, Blackgrass [19, 25]: 0
Blackgrass plant response rating ([19]; 125 g ai/ha): 0
Plant response rating, Pigweed [20, 26]: 0
Plant response rating, Pigweed [20, 27]: 10
Pigweed plant response rating [20, 28]: 10
Plant response rating, Pigweed [20, 29]: 0
Morningglory plant response rating [21, 30]: 0
Plant response rating, Morningglory [21, 31]: 0
Morningglory plant response rating [21, 32]: 0
Morningglory plant response rating [21, 33]: 10
Plant response rating, Velvetleaf [22, 27]: 10
Velvetleaf plant response rating [22, 28]: 0
Plant response rating, Cocklebur [23, 27]: 10
Cocklebur plant response rating [23, 28]: 0
Plant response rating, Barnyardgrass [24, 26]: 10
Plant response rating, Barnyardgrass [24, 27]: 0
Barnyardgrass plant response rating [24, 28]: 0
Plant response rating, Barnyardgrass [24, 29]: 0

Cn1nc(C(C)(C)C)cc1C(=O)Nc1cccc(C#N)c1 [Compound 121]
Oat, Wild plant response rating ([1]; 125 g ai/ha): 10
Oat, Wild plant response rating ([1]; 500 g ai/ha): 30
Plant response rating, Corn [2, 26]: 0
Corn plant response rating [2, 28]: 0
Corn plant response rating [2, 36]: 10
Plant response rating, Corn [2, 29]: 0
Barnyardgrass plant response rating [3, 30]: 10
Plant response rating, Barnyardgrass [3, 31]: 35
Barnyardgrass plant response rating [3, 32]: 15
Barnyardgrass plant response rating [3, 35]: 40
Plant response rating, Crabgrass, Large [4, 26]: 50
Crabgrass, Large plant response rating [4, 28]: 10
Crabgrass, Large plant response rating [4, 36]: 10
Plant response rating, Crabgrass, Large [4, 29]: 0
Barnyardgrass plant response rating [5]: 0
Crabgrass, Large plant response rating [6, 30]: 10
Plant response rating, Crabgrass, Large [6, 31]: 10
Crabgrass, Large plant response rating [6, 32]: 10
Crabgrass, Large plant response rating [6, 35]: 75
Plant response rating, Lambsquarters [7, 26]: 100
Lambsquarters plant response rating [7, 28]: 80
Lambsquarters plant response rating [7, 36]: 80
Plant response rating, Lambsquarters [7, 29]: 70
Ducksalad plant response rating [8]: 0
Foxtail, Giant plant response rating [9, 30]: 15
Plant response rating, Foxtail, Giant [9, 31]: 25
Foxtail, Giant plant response rating [9, 32]: 25
Foxtail, Giant plant response rating [9, 35]: 75
Plant response rating, Morningglory [10, 26]: 20
Morningglory plant response rating [10, 28]: 0
Morningglory plant response rating [10, 36]: 0
Plant response rating, Morningglory [10, 29]: 0
Sedge, Umbrella plant response rating [11]: 0
Wheat plant response rating ([12]; 125 g ai/ha): 0
Wheat plant response rating ([12]; 500 g ai/ha): 0
Plant response rating, Rice [13, 34]: 0
Plant response rating, Surinam Grass [14, 26]: 20
Surinam Grass plant response rating [14, 28]: 10
Surinam Grass plant response rating [14, 36]: 30
Plant response rating, Surinam Grass [14, 29]: 0
Pigweed plant response rating [15, 30]: 90
Plant response rating, Pigweed [15, 31]: 100
Pigweed plant response rating [15, 35]: 100
Pigweed plant response rating [15, 37]: 95
Velvetleaf plant response rating [16, 30]: 10
Plant response rating, Velvetleaf [16, 31]: 15
Velvetleaf plant response rating [16, 35]: 30
Velvetleaf plant response rating [16, 37]: 10
Rice plant response rating [17]: 0
Plant response rating, Foxtail, Giant [18, 26]: 70
Foxtail, Giant plant response rating [18, 28]: 0
Foxtail, Giant plant response rating [18, 36]: 10
Plant response rating, Foxtail, Giant [18, 29]: 0
Blackgrass plant response rating ([19]; 125 g ai/ha): 0
Blackgrass plant response rating ([19]; 500 g ai/ha): 0
Plant response rating, Pigweed [20, 26]: 100
Pigweed plant response rating [20, 28]: 30
Pigweed plant response rating [20, 36]: 50
Plant response rating, Pigweed [20, 29]: 80
Morningglory plant response rating [21, 30]: 20
Plant response rating, Morningglory [21, 31]: 20
Morningglory plant response rating [21, 32]: 5
Morningglory plant response rating [21, 35]: 20
Plant response rating, Velvetleaf [22, 26]: 20
Velvetleaf plant response rating [22, 28]: 10
Velvetleaf plant response rating [22, 36]: 20
Plant response rating, Velvetleaf [22, 29]: 0
Plant response rating, Cocklebur [23, 26]: 0
Cocklebur plant response rating [23, 28]: 10
Cocklebur plant response rating [23, 36]: 20
Plant response rating, Cocklebur [23, 29]: 0
Plant response rating, Barnyardgrass [24, 26]: 80
Barnyardgrass plant response rating [24, 28]: 0
Barnyardgrass plant response rating [24, 36]: 0
Plant response rating, Barnyardgrass [24, 29]: 0
